A short description of data set [1]: xn = mol fraction of the nth substance listed. As to conditions: 313.15 K; 101 kPa; Liquid; Vibrating tube method; x1 = 0.333.
Data set [2] in a line: refractive index (Na D-line) (dimensionless); xn = mol fraction of the nth substance listed. As to conditions: 313.15 K; 101 kPa; Liquid; Standard Abbe refractometry; x1 = 0.333.

Molecules are shown by their SMILES. Numbers after ± are expanded uncertainties.

Here are results for 1 compound from the NIST ThermoML archive (doi:10.1016/j.fluid.2018.01.019).

A word on the mass density: it is the mass of a sample divided by its volume. A word on the refractive index: it is the speed of light in vacuum divided by its phase velocity in the sample.

On to `C[N+](C)(C)C.[Cl-]` [tetramethylammonium chloride] + OCCO, for which the mass density in data set [1] amounted to 1072.19 ± 0.19 kg/m3. Also, the refractive index in data set [2] was found to be 1.45599 ± 0.00033.
